For 31 compounds, IC50 results are on record in patent US12441703B2, “Carboxamides as modulators of sodium channels” (VERTEX PHARMACEUTICALS INCORPORATED, priority 2019, dated 2025).

Like-named read-outs stand apart in the source and are kept apart here.

The target in the assay is human NaV 1.8 (Homo sapiens, UniProt Q9Y5Y9). Nature of the assay: E-VIPR assay for detecting and measuring NaV inhibition properties. The assay is classed as cell-based. The following applies: HEK cells expressing truncated human NaV 1.8, read-out: IC50. An outline of the steps:
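HEK cells with truncated human NaV1.8 plus KIR2.1 BacMam, hexyl dye loaded 20 min, compound 30 min at room temperature, 11-point 3-fold series […], 0.625% DMSO, with or without human serum. E-VIPR biphasic stimulation at 10 Hz for 10 s; membrane-potential response read as normalized coumarin/oxonol ratio.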

Setting [1] is: E-VIPR assay conducted in the presence of human serum.

human NaV 1.8, sequence (Q9Y5Y9 whole entry, looked up, the tested form may be a part): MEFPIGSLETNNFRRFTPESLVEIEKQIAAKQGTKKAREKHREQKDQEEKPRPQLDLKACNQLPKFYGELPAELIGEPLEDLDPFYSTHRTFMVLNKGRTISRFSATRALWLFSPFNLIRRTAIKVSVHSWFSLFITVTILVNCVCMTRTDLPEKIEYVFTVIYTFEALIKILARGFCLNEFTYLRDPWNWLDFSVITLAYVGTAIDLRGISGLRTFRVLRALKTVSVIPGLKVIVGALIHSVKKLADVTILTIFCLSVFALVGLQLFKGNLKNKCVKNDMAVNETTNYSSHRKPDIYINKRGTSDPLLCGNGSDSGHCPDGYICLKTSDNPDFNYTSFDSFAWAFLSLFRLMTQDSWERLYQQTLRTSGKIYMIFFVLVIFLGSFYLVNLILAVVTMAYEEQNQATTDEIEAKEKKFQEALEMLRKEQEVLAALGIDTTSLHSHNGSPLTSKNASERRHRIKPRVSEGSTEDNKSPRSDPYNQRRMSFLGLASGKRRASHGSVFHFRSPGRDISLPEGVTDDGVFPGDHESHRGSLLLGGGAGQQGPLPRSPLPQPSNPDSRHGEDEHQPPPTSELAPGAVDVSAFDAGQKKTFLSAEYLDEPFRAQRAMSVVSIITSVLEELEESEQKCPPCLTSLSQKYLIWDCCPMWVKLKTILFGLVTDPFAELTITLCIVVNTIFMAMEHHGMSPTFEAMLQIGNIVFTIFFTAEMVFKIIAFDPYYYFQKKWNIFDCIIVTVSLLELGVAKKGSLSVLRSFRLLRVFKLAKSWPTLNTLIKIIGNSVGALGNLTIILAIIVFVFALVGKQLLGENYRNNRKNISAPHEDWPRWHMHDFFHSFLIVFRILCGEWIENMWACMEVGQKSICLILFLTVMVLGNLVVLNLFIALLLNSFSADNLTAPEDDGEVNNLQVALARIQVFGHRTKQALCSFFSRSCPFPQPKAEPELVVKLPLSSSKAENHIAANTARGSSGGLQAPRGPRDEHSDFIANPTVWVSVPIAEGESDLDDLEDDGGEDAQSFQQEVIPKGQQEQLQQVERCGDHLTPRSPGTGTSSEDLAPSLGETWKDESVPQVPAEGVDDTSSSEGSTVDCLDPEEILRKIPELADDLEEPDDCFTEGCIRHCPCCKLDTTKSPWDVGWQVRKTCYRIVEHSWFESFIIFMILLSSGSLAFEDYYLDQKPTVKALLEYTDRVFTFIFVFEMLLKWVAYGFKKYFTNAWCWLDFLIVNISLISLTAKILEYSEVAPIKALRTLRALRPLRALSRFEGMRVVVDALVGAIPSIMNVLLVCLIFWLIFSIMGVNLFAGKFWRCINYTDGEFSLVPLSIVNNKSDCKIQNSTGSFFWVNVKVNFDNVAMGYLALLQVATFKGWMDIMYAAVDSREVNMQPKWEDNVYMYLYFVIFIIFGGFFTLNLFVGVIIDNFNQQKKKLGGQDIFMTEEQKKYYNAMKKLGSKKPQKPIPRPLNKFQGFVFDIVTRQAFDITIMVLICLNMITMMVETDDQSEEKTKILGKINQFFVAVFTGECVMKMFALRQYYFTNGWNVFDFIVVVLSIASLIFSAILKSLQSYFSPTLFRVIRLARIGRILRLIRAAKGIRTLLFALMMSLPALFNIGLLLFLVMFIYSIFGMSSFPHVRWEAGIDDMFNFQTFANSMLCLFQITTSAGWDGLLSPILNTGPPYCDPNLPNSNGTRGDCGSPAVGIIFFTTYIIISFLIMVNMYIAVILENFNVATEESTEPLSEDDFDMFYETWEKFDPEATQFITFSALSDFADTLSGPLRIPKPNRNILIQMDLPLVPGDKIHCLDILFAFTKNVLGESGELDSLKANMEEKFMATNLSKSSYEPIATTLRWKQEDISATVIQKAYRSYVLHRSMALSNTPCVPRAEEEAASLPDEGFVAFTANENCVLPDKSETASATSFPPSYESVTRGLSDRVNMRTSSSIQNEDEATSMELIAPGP

Turning to `Cc1cc(Oc2ccc(C(F)(F)F)cc2C(=O)Nc2ccnc(C(N)=O)c2)ccc1F` [Compound 3, 4-[[2-(4-fluoro-3-methyl-phenoxy)-5-(trifluoromethyl)benzoyl]amino]pyridine-2-carboxamide], under setting [1], the half-inhibitory concentration (IC50) is 1400 nM. Same read-out and setting: with `COc1cc(OC(F)(F)F)ccc1Oc1cc(-c2ccc(C(F)(F)F)cc2)ccc1C(=O)Nc1ccnc(C(N)=O)c1` [Compound 157, 4-[[2-[2-methoxy-4-(trifluoromethoxy)phenoxy]-4-[4-(trifluoromethyl)phenyl]benzoyl]amino]pyridine-2-carboxamide] the figure was 408 nM; with `Cc1c(C(F)(F)F)ccc(Oc2ccc(OC(C)C)cc2F)c1C(=O)Nc1ccnc(C(N)=O)c1` [Compound 132, 4-[[6-(2-fluoro-4-isopropoxy-phenoxy)-2-methyl-3-(trifluoromethyl)benzoyl]amino]pyridine-2-carboxamide], greater than 3000 nM; with `CC(C)Oc1ccc(Oc2cc(C(F)(F)F)ccc2C(=O)Nc2ccnc(C(N)=O)c2)cc1Cl` [Compound 108, 4-[[2-(3-chloro-4-isopropoxy-phenoxy)-4-(trifluoromethyl)benzoyl]amino]pyridine-2-carboxamide], greater than 3000 nM.

With `CC(F)(F)c1cc(F)ccc1Oc1cc(C(F)(F)F)ccc1C(=O)Nc1ccnc(C(N)=O)c1` [Compound 112, 4-[[2-[2-(1,1-difluoroethyl)-4-fluoro-phenoxy]-4-(trifluoromethyl)benzoyl]amino]pyridine-2-carboxamide], under setting [1], the IC50 is greater than 3000 nM. The same measure, in the same setting: with `COc1cc(OC(F)(F)F)ccc1Oc1ccc(C(F)(F)F)c(C)c1C(=O)Nc1cc(C(N)=O)ncc1C` [Compound 153] the figure was 7 nM; with `Cc1cc(Cl)ccc1Oc1ccc(C(F)(F)F)c(C)c1C(=O)Nc1ccc(C(N)=O)nc1` [Compound 233, 5-[[6-(4-chloro-2-methyl-phenoxy)-2-methyl-3-(trifluoromethyl)benzoyl]amino]pyridine-2-carboxamide], 1400 nM.

Regarding `NC(=O)c1cc(NC(=O)c2cc(C(F)(F)F)ccc2Oc2cccc(C3CCCCC3)c2)ccn1` [Compound 14, 4-[[2-(3-cyclohexylphenoxy)-5-(trifluoromethyl)benzoyl]amino]pyridine-2-carboxamide], the IC50 under setting [1] was greater than 3000 nM. `CCOc1cc(OC(F)(F)F)ccc1Oc1ccc(C(F)(F)F)c(F)c1C(=O)Nc1ccnc(C(N)=O)c1` [Compound 346, 4-[[6-[2-ethoxy-4-(trifluoromethoxy)phenoxy]-2-fluoro-3-(trifluoromethyl)benzoyl]amino]pyridine-2-carboxamide]: the IC50 under setting [1] amounted to 5.8 nM. Consider `Cc1cnc(C(N)=O)cc1NC(=O)c1c(Oc2ccc(OC(F)(F)F)c(F)c2C)ccc(C(F)(F)F)c1C` [Compound 288, 4-[[6-[3-Fluoro-2-Methyl-4-(Trifluoromethoxy)Phenoxy]-2-Methyl-3-(Trifluoromethyl)Benzoyl]Amino]-5-Methyl-Pyridine-2-Carboxamide], for which the IC50 under setting [1] amounted to 20.3 nM. Still for that read-out and setting: with `COc1cc(OC(F)(F)F)ccc1Oc1cc(C2CC2)c(C(F)(F)F)nc1C(=O)Nc1ccnc(C(N)=O)c1` [Compound 282, N-(2-Carbamoyl-4-Pyridyl)-5-Cyclopropyl-3-[2-Methoxy-4-(Trifluoromethoxy)Phenoxy]-6-(Trifluoromethyl)Pyridine-2-Carboxamide] the figure was 57 nM; with `NC(=O)c1cc(NC(=O)c2c(Oc3ccc(F)c(Cl)c3)ccc(C(F)(F)F)c2F)ccn1` [Compound 25, 4-[[6-(3-chloro-4-fluoro-phenoxy)-2-fluoro-3-(trifluoromethyl)benzoyl]amino]pyridine-2-carboxamide], 160 nM; with `COc1c(Oc2ccc(F)c(F)c2C(=O)Nc2ccnc(C(N)=O)c2)ccc(OC(F)(F)F)c1F` [Compound 303, 4-[[2,3-difluoro-6-[3-fluoro-2-methoxy-4-(trifluoromethoxy)phenoxy]benzoyl]amino]pyridine-2-carboxamide], 19 nM. Consider `Cc1cc(OC(F)(F)F)ccc1Oc1ccc(Cl)c(F)c1C(=O)Nc1ccnc(C(N)=O)c1` [Compound 286, 4-[[3-Chloro-2-Fluoro-6-[2-Methyl-4-(Trifluoromethoxy)Phenoxy]Benzoyl]Amino]Pyridine-2-Carboxamide], for which the IC50 under setting [1] worked out at 14 nM. On to `[2H]C([2H])([2H])Oc1cc(OC(F)(F)F)ccc1Oc1cc(C(F)(F)F)cnc1C(=O)Nc1ccc(C(N)=O)nc1` [Compound 174, N-(6-carbamoyl-3-pyridyl)-3-[2-(trideuteriomethoxy)-4-(trifluoromethoxy)phenoxy]-5-(trifluoromethyl)pyridine-2-carboxamide], for which the IC50 under setting [1] was greater than 3000 nM.

For `[2H]C([2H])([2H])Oc1cc(OC(F)(F)F)ccc1Oc1cc(C#CCC(C)C)cc(F)c1C(=O)Nc1ccnc(C(N)=O)c1` [Compound 1021, 4-[[2-fluoro-4-(4-methylpent-1-ynyl)-6-[2-(trideuteriomethoxy)-4-(trifluoromethoxy)phenoxy]benzoyl]amino]pyridine-2-carboxamide], the IC50 under setting [1] amounted to 41 nM. Consider `Cc1c(C(F)(F)F)ccc(Oc2c(F)cc(F)cc2F)c1C(=O)Nc1ccnc(C(N)=O)c1` [Compound 143, 4-[[2-methyl-3-(trifluoromethyl)-6-(2,4,6-trifluorophenoxy)benzoyl]amino]pyridine-2-carboxamide], for which the IC50 under setting [1] was greater than 3000 nM. Consider `CCOc1ccc(Oc2ccc(C(F)(F)F)c(F)c2C(=O)Nc2ccnc(C(N)=O)c2)c(F)c1F` [Compound 19, 4-[[6-(4-ethoxy-2,3-difluoro-phenoxy)-2-fluoro-3-(trifluoromethyl)benzoyl]amino]pyridine-2-carboxamide], for which, under setting [1], the IC50 came out at 57 nM. On the same count and under the same terms, next, `NC(=O)c1cc(NC(=O)c2c(Oc3ccc(C(F)(F)F)nc3)ccc(C(F)(F)F)c2F)ccn1` [Compound 39, 4-[[2-fluoro-3-(trifluoromethyl)-6-[[6-(trifluoromethyl)-3-pyridyl]oxy]benzoyl]amino]pyridine-2-carboxamide]: greater than 3000 nM; `Cc1cc(Cl)cc(Cl)c1Oc1ccc(C(F)(F)F)c(F)c1C(=O)Nc1ccnc(C(N)=O)c1` [Compound 47, 4-[[6-(2,4-dichloro-6-methyl-phenoxy)-2-fluoro-3-(trifluoromethyl)benzoyl]amino]pyridine-2-carboxamide]: 1400 nM. With `Cc1c(F)ccc(Oc2ccc(C(F)(F)F)c(C)c2C(=O)Nc2ccnc(C(N)=O)c2)c1C` [Compound 141, 4-[[6-(4-fluoro-2,3-dimethyl-phenoxy)-2-methyl-3-(trifluoromethyl)benzoyl]amino]pyridine-2-carboxamide], the IC50 under setting [1] was 220 nM. On the same count and under the same terms, with `COc1cc(F)ccc1Oc1ccc(C(F)(F)F)cc1C(=O)Nc1ccnc(C(N)=O)c1` [Compound 8, 4-[[2-(4-fluoro-2-methoxy-phenoxy)-5-(trifluoromethyl)benzoyl]amino]pyridine-2-carboxamide] the figure was 510 nM; with `COc1cc(C)cc(OC)c1Oc1ccc(C(F)(F)F)c(C)c1C(=O)Nc1ccc(C(N)=O)nc1` [Compound 228, 5-[[6-(2,6-dimethoxy-4-methyl-phenoxy)-2-methyl-3-(trifluoromethyl)benzoyl]amino]pyridine-2-carboxamide], greater than 3000 nM; with `CC(C)Oc1ccc(Oc2cc(C(F)(F)F)ccc2C(=O)Nc2ccnc(C(N)=O)c2)cc1F` [Compound 160, 4-[[2-(3-fluoro-4-isopropoxy-phenoxy)-4-(trifluoromethyl)benzoyl]amino]pyridine-2-carboxamide], greater than 3000 nM. `Cc1c(C(F)(F)F)ccc(Oc2ccc(F)c(Cl)c2)c1C(=O)Nc1ccnc(C(N)=O)c1` [Compound 127, 4-[[6-(3-chloro-4-fluoro-phenoxy)-2-methyl-3-(trifluoromethyl)benzoyl]amino]pyridine-2-carboxamide]: the IC50 under setting [1] came to 150 nM. On the same count and under the same terms, next, `COc1cc(OC(F)(F)F)ccc1Oc1cc(-c2ccc(Cl)cc2)cc(F)c1C(=O)Nc1ccnc(C(N)=O)c1` [Compound 171, 4-[[4-(4-chlorophenyl)-2-fluoro-6-[2-methoxy-4-(trifluoromethoxy)phenoxy]benzoyl]amino]pyridine-2-carboxamide]: 9 nM; `COc1cc(OC(F)(F)F)ccc1Oc1cc2c(c(C)c1C(=O)Nc1ccnc(C(N)=O)c1)OC(F)(F)O2` [Compound 202, 4-[[2,2-difluoro-6-[2-methoxy-4-(trifluoromethoxy)phenoxy]-4-methyl-1,3-benzodioxole-5-carbonyl]amino]pyridine-2-carboxamide]: 6 nM.

With `COc1cc(OC(F)(F)F)ccc1Oc1ccc(F)c(F)c1C(=O)Nc1ccnc(C(N)=O)c1` [Compound 259, 4-[[2,3-difluoro-6-[2-methoxy-4-(trifluoromethoxy)phenoxy]benzoyl]amino]pyridine-2-carboxamide], the IC50 under setting [1] was 59 nM. Same read-out and setting: next, `COc1c(Oc2cnc(C(F)(F)F)c(C)c2C(=O)Nc2cc(C(N)=O)ncc2C)ccc(OC(F)(F)F)c1F` [Compound 336, N-(2-carbamoyl-5-methyl-4-pyridyl)-5-[3-fluoro-2-methoxy-4-(trifluoromethoxy)phenoxy]-3-methyl-2-(trifluoromethyl)pyridine-4-carboxamide]: 5.6 nM. On to `Cc1c(Oc2ccc(C(F)(F)F)cc2C(=O)Nc2ccnc(C(N)=O)c2)ccc(F)c1F` [Compound 361, 4-[[2-(3,4-difluoro-2-methyl-phenoxy)-5-(trifluoromethyl)benzoyl]amino]pyridine-2-carboxamide], for which, for the setting “E-VIPR assay conducted in the absence of human serum (compounds marked *)”, the IC50 worked out at 44 nM. On to `COc1cc(OC(F)(F)F)ccc1Oc1cc(C(F)(F)F)c(OC)c(F)c1C(=O)Nc1ccnc(C(N)=O)c1` [Compound 284, 4-[[2-Fluoro-3-Methoxy-6-[2-Methoxy-4-(Trifluoromethoxy)Phenoxy]-4-(Trifluoromethyl)Benzoyl]Amino]Pyridine-2-Carboxamide], for which, under setting [1], the IC50 is 4 nM.
